From patent publication US20240342143A1, “APPLICATION OF ALKALOID COMPOUND HIP IN TREATMENT OF CARDIAC TRAUMA” (HUZHOU COLLEGE, priority 2022, published 2024)

What was measured:
Assay type in all cases: cell-based
Cleaved-Caspase-3 = assay: Western blot of Cleaved-Caspase-3 expression in DOX-induced H9c2 cardiomyocytes; settings: FIG. 3
Method: (§1) (2) From H9c2 cardiomyocytes which were treated with different tested seabuckthorn alkaloids for 1 h and then treated with 2.5 μM DOX for 24 h, proteins were extract. That is, the H9c2 cardiomyocytes were lysed and scraped, and the cell lysate were collected and centrifuged at 12,000 g for 15 min to collect the supernatant and discard the precipitate. The supernatant was stored at […], and quantified for proteins using the BCA method for later use. SDS-PAGE electrophoresis was performed by using 5% stacking gel (Step1: 80V, 30 min; Step2: 120V, 180 min). The membrane transfer was performed using a PVDF membrane for 30 min at 80 mA. Blocking and hybridization was performed by blocking in 5% nonfat milk powder for 1 h, incubating with a primary antibody overnight and incubating with a secondary antibody at room temperature for 1-2 h with gentle shaking. Development was performed by ECL reagent development. Expression levels of intracellular Caspase-3 and p-JNK/JNK proteins were observed using a gel imaging system.

p-JNK = assay: Western blot of p-JNK/JNK expression in DOX-induced H9c2 cardiomyocytes; settings: FIG. 4; for expression level of p-JNK vs DOX model group: 1 h, then 2.5 μM DOX 24 h
Method: as §1

H9c2 cardiomyocytes = assay: Toxicity effect of Hip on H9c2 cardiomyocytes (MTT colorimetric method); settings: 24 h, FIG. 1
Method: H9c2 cells were incubated with the alkaloid compound Hip at different concentrations (0.1μ, 1μ, 5μ, 10μ, 20μ, 40μ, 80μ, 160 μM) of for 24 h. The toxicity effect of the alkaloid compound on cardiomyocytes was evaluated by using the MTT colorimetric method.

[1] = test system: DOX-induced H9c2 cardiomyocytes; assay: Effect of Hip on DOX-induced H9c2 cardiomyocyte toxicity (MTT colorimetric method); settings: 1 h pre-incubation, then 2.5 μM DOX 24 h, FIG. 2
Method: (1) H9c2 cells were pre-incubated with the alkaloid compound Hip for 1 h, and then added with 2.5 μM doxorubicin (DOX) for 24 h. The effect of the alkaloid compound Hip for DOX-induced cardiomyocyte apoptosis activity was screened by using the MTT colorimetric method. The optimal concentration range for action was determined.

[2] = 2.5 μM DOX 24 h, DOX model group

| Structure (SMILES) | expression level of Cleaved-Caspase-3 vs Con group (Cleaved-Caspase-3; [2]) | expression level of p-JNK vs Con group (p-JNK; [2]) | viability of H9c2 cells vs Con group (H9c2 cardiomyocytes; Hip 80 μM) | viability of H9c2 cells vs Con group (H9c2 cardiomyocytes; Hip 0.1~40 μM) | difference from DOX model group in DOX-induced myocardial cytotoxicity ([1]; Hip 5-80 μM) | inhibition of DOX-induced myocardial cytotoxicity vs DOX model group ([1]; different Hip concentrations) | expression level of Cleaved-Caspase-3 vs DOX model group (Cleaved-Caspase-3; Hip 10 μM, 20 μM and 40 μM, 1 h, then 2.5 μM DOX 24 h) | expression level of p-JNK vs DOX model group (p-JNK; Hip high-dose group 40 μM) | expression level of p-JNK vs DOX model group (p-JNK; Hip low-dose group 10 μM) | expression level of p-JNK vs DOX model group (p-JNK; Hip middle-dose group 20 μM) |
| --- | --- | --- | --- | --- | --- | --- | --- | --- | --- | --- |
| COc1cccc2c1C(=O)c1c(O)c3c(c(O)c1C2=O)C[C@@](O)(C(=O)CO)C[C@@H]3O[C@H]1C[C@H](N)[C@H](O)[C@H](C)O1 [DOX, doxorubicin, reference compound] | can significantly increase the expression level of Cleaved-Caspase-3 | can significantly increase the expression level of p-JNK |  |  |  |  |  |  |  |  |
| O=C1CC[C@H]2c3[nH]c4ccc(O)cc4c3CCN12 [Hip, Hippophamide] |  |  | a significant difference compared with the Con group | no statistical difference compared with the Con group | significantly or extremely significant different | can inhibit DOX-induced myocardial cytotoxicity | can decrease the increased level of Cleaved-Caspase-3 caused by DOX to varying degree | extremely significant differences | no statistical difference | extremely significant differences |
